Twelve compounds from the Kinase Knowledgebase extract (Sharma et al. 2016) can be followed below.

The assay concerns the target CDK2 (UniProt P24941). Nature of the assay: Enzyme Assay.

`Cc1cnc(NC2(CO)CC2)nc1-c1c[nH]c(C(=O)N[C@H](CO)c2ccccc2)c1` displayed an inhibitory constant (Ki) of 100 to 1000 nM. The figure for `Cc1cnc(Nc2cccc(C(F)(F)F)c2)nc1-c1c[nH]c(C(=O)N[C@H](CO)c2ccccc2)c1` is below 100 nM; for `Cc1cnc(Nc2cccc(F)c2)nc1-c1c[nH]c(C(=O)NC(CO)c2cccc(C(F)(F)F)c2)c1` (configuration not stated) it is 100 to 1000 nM; for `Cc1cnc(NCC2CC2)nc1-c1c[nH]c(C(=O)N[C@H](CO)c2ccccc2)c1` it is 1000 to 20000 nM.

For `Cc1cnc(NC2CC2)nc1-c1c[nH]c(C(=O)N[C@H](CO)c2ccccc2)c1`, the Ki lay within 100 to 1000 nM.

With `Cc1cnc(Nc2ccccc2)nc1-c1c[nH]c(C(=O)NC(CO)c2cccc(C(F)(F)F)c2)c1` (configuration not stated), the Ki was in the range of 100 to 1000 nM. Consider `Cc1cnc(N[C@H]2CC[C@H](O)CC2)nc1-c1c[nH]c(C(=O)N[C@H](CO)c2ccccc2)c1`, for which the Ki was below 100 nM.

`Cc1cnc(Nc2ccc(OCc3ccccc3)cc2)nc1-c1c[nH]c(C(=O)N[C@H](CO)c2ccccc2)c1`: the inhibition constant Ki is below 100 nM. In the case of `COc1ccccc1Nc1ncc(C)c(-c2c[nH]c(C(=O)N[C@H](CO)c3ccccc3)c2)n1`, the Ki was in the range of 1000 to 20000 nM. `Cc1cnc(N[C@@H](CO)c2ccccc2)nc1-c1c[nH]c(C(=O)N[C@H](CO)c2ccccc2)c1` gave a Ki of 100 to 1000 nM.

For the compound `Cc1cnc(NCc2ccccc2)nc1-c1c[nH]c(C(=O)N[C@H](CO)c2ccccc2)c1`, the Ki lay in the range of 100 to 1000 nM.

As for `CCNc1ncc(C)c(-c2c[nH]c(C(=O)N[C@H](CO)c3ccccc3)c2)n1`, the inhibition constant (Ki) fell in the range of 1000 to 20000 nM.

As usually defined, the Ki is the equilibrium dissociation constant of an inhibitor or competing ligand from its target.
